Data set [1] has as its target Cathepsin S (Homo sapiens, UniProt P25774). Briefly: Inhibition of human recombinant cathepsin S expressed in baculovirus by FRET assay.
The nature of data set [2]: Half life in Sprague-Dawley rat at 2 mg/kg, iv. The format is ADME, organism-based. Set-up: dose 2 mg/kg, route intravenous. The conditions noted are these: in vivo.
A short description of data set [3]: Cmax in Sprague-Dawley rat at 10 mg/kg, po. The format is ADME, organism-based. On the set-up: dose 10 mg/kg, route oral. The note with it: in vivo.
The next data set has as its system Rattus norvegicus. As to the kind of experiment: AUC in Sprague-Dawley rat at 10 mg/kg, po. The format is ADME, organism-based, Plasma. On the set-up: dose 10 mg/kg, route oral. The note with it: in vivo.
The next data set addresses Procathepsin L (Homo sapiens, UniProt P07711). As to the kind of experiment: Inhibition of human cathepsin L.
The next data set concerns the target Cathepsin B (Homo sapiens, UniProt P07858). As to the kind of experiment: Inhibition of human cathepsin B.
A short description of data set [4]: Bioavailability in Sprague-Dawley rat at 2 mg/kg, iv. The format is ADME, organism-based. The note with it: in vivo.
Data set [5] has as its target Cathepsin S (Mus musculus, UniProt O70370). As to the kind of experiment: Inhibition of mouse cathepsin S expressed in baculovirus by FRET assay.
The target in a further data set is T1, Cathepsin F (Homo sapiens, UniProt Q9UBX1).
T1 sequence (Q9UBX1 whole entry): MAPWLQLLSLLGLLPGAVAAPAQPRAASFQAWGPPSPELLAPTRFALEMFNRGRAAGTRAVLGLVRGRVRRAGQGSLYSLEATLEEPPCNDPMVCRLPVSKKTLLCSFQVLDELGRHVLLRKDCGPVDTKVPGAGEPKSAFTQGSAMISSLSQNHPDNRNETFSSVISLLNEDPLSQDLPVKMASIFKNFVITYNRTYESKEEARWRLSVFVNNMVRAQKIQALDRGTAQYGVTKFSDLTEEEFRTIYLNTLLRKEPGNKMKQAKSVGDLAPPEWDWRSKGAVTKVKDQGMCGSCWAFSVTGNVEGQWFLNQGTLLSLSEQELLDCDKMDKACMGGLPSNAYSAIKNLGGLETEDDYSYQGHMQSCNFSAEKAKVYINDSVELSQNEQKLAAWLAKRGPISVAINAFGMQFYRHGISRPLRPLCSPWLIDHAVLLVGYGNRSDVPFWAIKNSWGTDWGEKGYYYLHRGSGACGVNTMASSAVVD
Briefly: Inhibition of human cathepsin F.

The nature of data set [6]: Clearance in Sprague-Dawley rat at 2 mg/kg, iv. The format is ADME, organism-based. On the set-up: dose 2 mg/kg, route intravenous. The conditions noted are these: in vivo.

SMILES strings stand for the structures. A value given as a limit tells only on which side of the number the result lay.

Sequence of Cathepsin S (Homo sapiens, UniProt P25774) (P25774 whole entry): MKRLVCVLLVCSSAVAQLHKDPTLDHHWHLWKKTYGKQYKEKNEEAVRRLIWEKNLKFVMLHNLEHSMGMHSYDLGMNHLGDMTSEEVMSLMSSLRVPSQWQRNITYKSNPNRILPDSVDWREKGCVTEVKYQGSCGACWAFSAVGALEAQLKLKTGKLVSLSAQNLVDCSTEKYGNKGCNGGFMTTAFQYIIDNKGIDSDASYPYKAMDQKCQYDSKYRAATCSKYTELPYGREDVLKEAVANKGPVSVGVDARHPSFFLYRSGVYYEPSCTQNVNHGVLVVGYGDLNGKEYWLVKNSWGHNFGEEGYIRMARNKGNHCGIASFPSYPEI
Sequence of Procathepsin L (P07711 whole entry): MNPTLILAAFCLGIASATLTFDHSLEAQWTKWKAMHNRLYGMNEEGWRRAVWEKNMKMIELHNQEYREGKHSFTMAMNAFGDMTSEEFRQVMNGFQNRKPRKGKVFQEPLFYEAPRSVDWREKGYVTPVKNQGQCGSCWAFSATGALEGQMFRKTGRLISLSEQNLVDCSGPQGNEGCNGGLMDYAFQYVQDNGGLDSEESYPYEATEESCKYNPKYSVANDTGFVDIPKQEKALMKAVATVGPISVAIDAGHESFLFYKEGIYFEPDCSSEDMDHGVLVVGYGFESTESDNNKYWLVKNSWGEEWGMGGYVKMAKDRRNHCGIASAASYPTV
Sequence of Cathepsin S (Mus musculus, UniProt O70370) (O70370 whole entry): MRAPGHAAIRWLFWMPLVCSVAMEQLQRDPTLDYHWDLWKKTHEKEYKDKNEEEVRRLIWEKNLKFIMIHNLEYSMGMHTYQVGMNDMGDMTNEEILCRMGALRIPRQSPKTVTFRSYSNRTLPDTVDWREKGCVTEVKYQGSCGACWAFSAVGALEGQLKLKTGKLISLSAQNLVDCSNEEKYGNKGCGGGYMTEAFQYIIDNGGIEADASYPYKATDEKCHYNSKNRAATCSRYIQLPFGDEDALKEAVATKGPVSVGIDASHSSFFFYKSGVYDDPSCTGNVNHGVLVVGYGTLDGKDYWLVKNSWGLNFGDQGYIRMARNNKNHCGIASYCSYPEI

As for `CS(=O)(=O)N1CCc2c(c(-c3ccc(Cl)c(C#Cc4cccc(C(F)(F)F)c4)c3)nn2CCCN2CCOCC2)C1`, the IC50 (usually the concentration that gives 50% inhibition) at Cathepsin S [1] worked out at 1500 nM.

As to `O=C(c1ccco1)N1CCc2c(c(-c3ccc(Cl)c(C#Cc4ccc(Cl)cc4)c3)nn2CCCN2CCOCC2)C1`, the IC50 at Cathepsin S [1] stood at 330 nM.

With `CS(=O)(=O)N1CCc2c(c(-c3ccc(Cl)c(C#Cc4ccc(C(F)(F)F)cc4)c3)nn2CCCN2CCOCC2)C1`, the IC50 on Cathepsin S [1] worked out at 280 nM.

On to `COc1ccccc1C#Cc1cc(-c2nn(CCCN3CCOCC3)c3c2CN(S(C)(=O)=O)CC3)ccc1Cl`, for which the half-inhibitory concentration (IC50) at Cathepsin S [1] is 550 nM.

Turning to `CS(=O)(=O)N1CCc2c(c(-c3ccc(Cl)c(C#Cc4ccc(C(=O)O)cc4)c3)nn2CCCN2CCOCC2)C1`, the IC50 at Cathepsin S [1] came out at 510 nM.

Consider `COC(=O)N1CCc2c(c(-c3ccc(Cl)c(C#Cc4ccc(Cl)cc4)c3)nn2CCCN2CCOCC2)C1`, for which the IC50 on Cathepsin S [1] was 40 nM.

For `CS(=O)(=O)N1CCc2c(c(-c3ccc(Cl)c(C#Cc4ccsc4)c3)nn2CCCN2CCOCC2)C1`, the half-inhibitory concentration (IC50) on Cathepsin S [1] turned out to be 1500 nM.

With `CC#Cc1cc(-c2nn(CCCN3CCOCC3)c3c2CN(S(C)(=O)=O)CC3)ccc1Cl`, the concentration for half-maximal inhibition (IC50) on Cathepsin S [1] is 7400 nM.

Regarding `CCCCC#Cc1cc(-c2nn(CCCN3CCOCC3)c3c2CN(S(C)(=O)=O)CC3)ccc1Cl`, the IC50 at Cathepsin S [1] came out at 11000 nM.

On to `Cc1ccccc1C#Cc1cc(-c2nn(CCCN3CCOCC3)c3c2CN(S(C)(=O)=O)CC3)ccc1Cl`, for which, on Cathepsin S [1], the concentration for half-maximal inhibition (IC50) was determined as 1100 nM.

Consider `COc1ccc(C#Cc2cc(-c3nn(CCCN4CCOCC4)c4c3CN(S(C)(=O)=O)CC4)ccc2Cl)cc1`, for which, on Cathepsin S [1], the IC50 amounted to 480 nM.

As for `CS(=O)(=O)N1CCc2c(c(-c3ccc(Cl)c(C#Cc4ccc(N)cc4)c3)nn2CCCN2CCOCC2)C1`, the IC50 on Cathepsin S [1] was 430 nM.

For `CS(=O)(=O)N1CCc2c(c(-c3ccc(Cl)c(C#Cc4ccc(Cl)cc4)c3)nn2CCCN2CCOCC2)C1`, in data set [2], the half-life – broadly, the time in which the quantity being followed falls by half – was 2 h. The concentration in data set [3] peaked (Cmax) at 530 nM. The same molecule registered an AUC in the data set on Rattus norvegicus of 48 uM.hr/L. The IC50 was more than 20000 nM at Procathepsin L, more than 20000 nM at Cathepsin B, 690 nM against Cathepsin S [5] and more than 20000 nM against Cathepsin F. Besides, the bioavailability (as a rule, the share of a dose that reaches the circulation, judged against a reference dose that is usually intravenous) in data set [4] is 21%. For the same molecule, the clearance – broadly, the volume of plasma or blood freed of the substance per unit of time – in [6] was 3 mL/min.

The values above are taken from ChEMBL document CHEMBL1154163, “Pyrazole-based cathepsin S inhibitors with arylalkynes as P1 binding elements” (Bioorg Med Chem Lett, 2009).
